Results as given in BindingDB's records for doi:10.1021/jm950720u (Tohoku College of Pharmacy, 1996).

Target: T1, Aromatase (Homo sapiens, UniProt P11511)
T1 sequence (P11511 whole entry): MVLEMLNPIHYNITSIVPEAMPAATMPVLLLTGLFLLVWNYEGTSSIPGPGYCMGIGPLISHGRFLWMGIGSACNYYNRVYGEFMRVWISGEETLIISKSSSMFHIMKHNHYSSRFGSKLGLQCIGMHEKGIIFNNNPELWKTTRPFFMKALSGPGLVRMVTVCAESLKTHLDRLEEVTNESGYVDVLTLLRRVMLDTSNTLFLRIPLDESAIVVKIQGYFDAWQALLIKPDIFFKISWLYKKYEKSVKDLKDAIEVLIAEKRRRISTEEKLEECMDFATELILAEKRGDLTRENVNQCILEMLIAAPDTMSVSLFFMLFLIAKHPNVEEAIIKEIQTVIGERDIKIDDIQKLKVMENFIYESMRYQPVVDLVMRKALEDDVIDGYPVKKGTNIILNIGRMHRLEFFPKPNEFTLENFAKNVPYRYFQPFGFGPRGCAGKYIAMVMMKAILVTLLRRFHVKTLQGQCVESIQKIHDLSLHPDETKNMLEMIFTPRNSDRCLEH
Test: Aromatase Assay
Settings: pH 7.5; 37 °C
Procedure: The enzyme activity was assayed by measuring the 3H-labeled H2O formed from [1beta-3H] Androstenedione during aromatization. After incubation, the reaction was terminated by CHCl3 extraction and centrifugation. Aliquots of the water phase were assayed for the presence of 3H2O by counting using a liquid scintillation spectrometer.

SMILES: C[C@]12CCC(=O)C=C1CCC1C2CC[C@]2(C)C(=O)CCC12 (stereo partly drawn) [[1beta-3H] androstenedione]
- IC50: 300 nM
- Ki: 20 nM
